Measurements reported in the kinase profiling compilation of Christmann-Franck et al. (2016).
Several values for one entry are separate records, joined by “and”; a condition that tells them apart may be missing. Identical values can stand only once.

Legend:
Experiment in all cases: Caliper, Mobility shift assay off-chip
[1] = target: PLK1 (human) (UniProt P53350)
[2] = target: TAB1 (human) (UniProt Q15750)
[3] = target: NTRK3 (human) (UniProt Q16288)
[4] = target: MST1R (human) (UniProt Q04912)
[5] = target: PRKCD (human) (UniProt Q05655)
[6] = target: TNK1 (human) (UniProt Q13470)
[7] = target: INSR (human) (UniProt P06213)
Chain of INSR (human) (P06213 whole entry, looked up): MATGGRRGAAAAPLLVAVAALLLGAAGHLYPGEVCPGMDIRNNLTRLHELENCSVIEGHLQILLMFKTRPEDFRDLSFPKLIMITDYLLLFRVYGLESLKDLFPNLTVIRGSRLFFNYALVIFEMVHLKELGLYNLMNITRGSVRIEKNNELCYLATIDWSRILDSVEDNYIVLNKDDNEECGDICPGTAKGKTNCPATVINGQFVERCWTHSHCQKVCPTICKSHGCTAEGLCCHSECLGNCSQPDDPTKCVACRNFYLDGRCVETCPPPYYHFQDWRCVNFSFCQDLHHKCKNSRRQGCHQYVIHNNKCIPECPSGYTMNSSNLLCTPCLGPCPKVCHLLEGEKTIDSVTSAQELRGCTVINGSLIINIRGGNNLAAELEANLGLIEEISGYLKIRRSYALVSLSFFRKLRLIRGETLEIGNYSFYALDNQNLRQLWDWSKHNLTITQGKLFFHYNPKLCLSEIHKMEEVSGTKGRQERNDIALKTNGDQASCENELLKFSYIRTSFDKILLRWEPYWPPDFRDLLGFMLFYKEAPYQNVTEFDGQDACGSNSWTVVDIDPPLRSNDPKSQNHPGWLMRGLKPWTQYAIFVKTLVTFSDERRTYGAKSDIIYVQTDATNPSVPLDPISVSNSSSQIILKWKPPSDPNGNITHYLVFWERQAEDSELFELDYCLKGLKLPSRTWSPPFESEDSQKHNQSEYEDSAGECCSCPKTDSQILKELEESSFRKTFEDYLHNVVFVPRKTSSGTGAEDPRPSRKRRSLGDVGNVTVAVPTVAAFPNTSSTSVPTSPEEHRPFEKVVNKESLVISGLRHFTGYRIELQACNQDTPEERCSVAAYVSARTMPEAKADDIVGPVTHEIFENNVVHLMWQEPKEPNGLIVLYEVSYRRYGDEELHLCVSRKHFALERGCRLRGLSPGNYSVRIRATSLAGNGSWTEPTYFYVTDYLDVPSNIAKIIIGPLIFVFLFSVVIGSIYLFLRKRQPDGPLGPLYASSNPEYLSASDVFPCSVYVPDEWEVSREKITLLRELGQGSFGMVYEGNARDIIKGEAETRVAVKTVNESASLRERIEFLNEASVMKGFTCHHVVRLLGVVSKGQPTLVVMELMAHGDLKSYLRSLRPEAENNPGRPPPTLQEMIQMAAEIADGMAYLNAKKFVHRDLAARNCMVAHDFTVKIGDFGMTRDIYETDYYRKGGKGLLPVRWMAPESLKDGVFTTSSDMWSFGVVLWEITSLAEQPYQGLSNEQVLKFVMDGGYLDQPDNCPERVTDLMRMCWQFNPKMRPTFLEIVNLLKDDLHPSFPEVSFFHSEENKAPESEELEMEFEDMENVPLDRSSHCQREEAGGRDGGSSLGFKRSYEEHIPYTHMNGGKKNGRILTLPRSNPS

[8] = target: PRKG2 (human) (UniProt Q13237)
[9] = target: NEK6 (human) (UniProt Q9HC98)
[10] = target: PRKCB1 (human) (UniProt P05771)
Chain of PRKCB1 (human) (P05771 whole entry, looked up): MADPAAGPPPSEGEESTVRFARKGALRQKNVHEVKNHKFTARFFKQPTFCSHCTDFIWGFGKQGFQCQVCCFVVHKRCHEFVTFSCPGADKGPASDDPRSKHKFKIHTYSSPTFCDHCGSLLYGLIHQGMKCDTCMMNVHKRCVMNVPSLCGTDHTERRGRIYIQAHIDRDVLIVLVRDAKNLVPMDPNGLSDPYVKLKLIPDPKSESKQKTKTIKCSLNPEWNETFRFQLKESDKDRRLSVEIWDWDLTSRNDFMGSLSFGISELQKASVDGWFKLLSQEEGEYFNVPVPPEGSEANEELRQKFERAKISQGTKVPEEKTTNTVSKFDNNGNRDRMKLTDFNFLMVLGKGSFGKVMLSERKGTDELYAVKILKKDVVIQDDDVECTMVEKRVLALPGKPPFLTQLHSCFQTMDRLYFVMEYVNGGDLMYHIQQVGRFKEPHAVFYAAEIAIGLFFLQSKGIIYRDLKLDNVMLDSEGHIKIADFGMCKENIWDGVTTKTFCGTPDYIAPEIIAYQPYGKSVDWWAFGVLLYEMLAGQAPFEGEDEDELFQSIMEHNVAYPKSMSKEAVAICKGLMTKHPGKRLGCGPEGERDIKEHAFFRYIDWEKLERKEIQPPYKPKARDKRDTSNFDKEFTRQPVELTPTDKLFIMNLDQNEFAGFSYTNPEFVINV

[11] = target: ROCK1 (human) (UniProt Q13464)
[12] = target: MARK1 (human) (UniProt Q9P0L2)
Chain of MARK1 (human) (Q9P0L2 whole entry, looked up): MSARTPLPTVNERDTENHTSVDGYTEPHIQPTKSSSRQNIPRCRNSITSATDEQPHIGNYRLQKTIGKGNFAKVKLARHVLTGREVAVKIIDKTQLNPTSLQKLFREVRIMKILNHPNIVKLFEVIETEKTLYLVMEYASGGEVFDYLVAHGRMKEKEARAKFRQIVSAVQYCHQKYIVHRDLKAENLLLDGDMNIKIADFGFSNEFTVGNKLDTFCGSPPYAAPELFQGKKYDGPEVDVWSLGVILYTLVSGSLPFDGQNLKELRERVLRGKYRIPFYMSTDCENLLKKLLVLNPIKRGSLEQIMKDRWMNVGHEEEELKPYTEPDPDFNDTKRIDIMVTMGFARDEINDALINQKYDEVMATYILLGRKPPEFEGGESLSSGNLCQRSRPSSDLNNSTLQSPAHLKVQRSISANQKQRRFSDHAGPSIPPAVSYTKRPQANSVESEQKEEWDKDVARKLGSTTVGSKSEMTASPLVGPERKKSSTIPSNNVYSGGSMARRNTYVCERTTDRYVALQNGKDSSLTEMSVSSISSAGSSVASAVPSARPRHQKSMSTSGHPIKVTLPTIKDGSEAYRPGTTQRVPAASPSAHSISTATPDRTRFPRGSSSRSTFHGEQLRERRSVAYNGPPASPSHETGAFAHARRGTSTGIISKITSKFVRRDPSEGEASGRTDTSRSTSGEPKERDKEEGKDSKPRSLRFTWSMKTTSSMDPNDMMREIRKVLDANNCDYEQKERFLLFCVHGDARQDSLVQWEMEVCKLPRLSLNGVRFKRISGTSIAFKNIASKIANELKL

[13] = target: EPHA2 (human) (UniProt P29317)
[14] = target: SRPK3 (human) (UniProt Q9UPE1)
[15] = target: NUAK1 (human) (UniProt O60285)
[16] = target: PRKCH (human) (UniProt P24723)
[17] = target: ZAP70 (human) (UniProt P43403)
[18] = target: SRC (human) (UniProt P12931)
[19] = target: AURKA (human) (UniProt O14965)
[20] = target: SPHK1 (human) (UniProt Q9NYA1)
[21] = target: PASK (human) (UniProt Q96RG2)
[22] = target: DDR1 (human) (UniProt Q08345)
[23] = target: TEC (human) (UniProt P42680)
Chain of TEC (human) (P42680 whole entry, looked up): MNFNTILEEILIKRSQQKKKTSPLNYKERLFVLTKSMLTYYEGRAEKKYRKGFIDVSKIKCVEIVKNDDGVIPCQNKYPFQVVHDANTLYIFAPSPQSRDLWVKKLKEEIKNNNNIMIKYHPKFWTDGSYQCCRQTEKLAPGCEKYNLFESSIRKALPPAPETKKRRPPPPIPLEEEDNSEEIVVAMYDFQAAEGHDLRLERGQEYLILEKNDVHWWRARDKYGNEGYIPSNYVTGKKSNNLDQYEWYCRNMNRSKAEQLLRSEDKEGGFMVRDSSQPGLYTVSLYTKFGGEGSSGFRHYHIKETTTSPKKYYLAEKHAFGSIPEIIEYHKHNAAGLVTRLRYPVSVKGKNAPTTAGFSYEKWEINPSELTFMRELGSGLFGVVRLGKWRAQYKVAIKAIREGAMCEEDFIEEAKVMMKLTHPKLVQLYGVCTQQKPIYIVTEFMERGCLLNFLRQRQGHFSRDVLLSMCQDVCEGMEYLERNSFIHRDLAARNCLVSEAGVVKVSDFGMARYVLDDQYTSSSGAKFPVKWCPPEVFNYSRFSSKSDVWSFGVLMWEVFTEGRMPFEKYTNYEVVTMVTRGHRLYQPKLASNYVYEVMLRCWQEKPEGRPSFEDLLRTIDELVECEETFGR

[24] = target: PRKD3 (human) (UniProt O94806)
Chain of PRKD3 (human) (O94806 whole entry, looked up): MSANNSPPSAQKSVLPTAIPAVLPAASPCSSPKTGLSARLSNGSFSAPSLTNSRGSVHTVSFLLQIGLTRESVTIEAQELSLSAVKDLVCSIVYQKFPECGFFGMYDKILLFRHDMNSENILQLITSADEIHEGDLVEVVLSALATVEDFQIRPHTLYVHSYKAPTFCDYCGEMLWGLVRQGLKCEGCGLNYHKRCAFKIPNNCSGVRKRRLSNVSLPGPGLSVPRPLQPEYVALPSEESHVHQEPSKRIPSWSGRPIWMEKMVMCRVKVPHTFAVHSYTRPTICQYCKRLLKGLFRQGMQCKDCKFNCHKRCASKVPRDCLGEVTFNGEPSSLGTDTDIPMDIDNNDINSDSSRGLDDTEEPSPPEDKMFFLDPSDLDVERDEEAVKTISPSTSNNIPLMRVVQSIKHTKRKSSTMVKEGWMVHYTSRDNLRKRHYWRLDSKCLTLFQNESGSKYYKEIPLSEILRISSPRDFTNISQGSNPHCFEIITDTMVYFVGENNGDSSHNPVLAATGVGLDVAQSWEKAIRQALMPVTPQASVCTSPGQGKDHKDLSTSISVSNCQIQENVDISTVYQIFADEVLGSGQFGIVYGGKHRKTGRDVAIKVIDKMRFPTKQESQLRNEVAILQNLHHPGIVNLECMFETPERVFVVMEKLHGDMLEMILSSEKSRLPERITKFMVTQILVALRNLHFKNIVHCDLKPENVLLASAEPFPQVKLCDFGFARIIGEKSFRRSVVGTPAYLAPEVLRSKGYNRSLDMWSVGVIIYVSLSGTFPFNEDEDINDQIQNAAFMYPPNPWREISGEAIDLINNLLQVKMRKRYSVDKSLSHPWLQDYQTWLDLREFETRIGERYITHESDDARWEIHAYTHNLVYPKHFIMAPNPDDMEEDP

[25] = target: CSNK1A1 (human) (UniProt P48729)
[26] = target: CAMK1D (human) (UniProt Q8IU85)
Chain of CAMK1D (human) (Q8IU85 whole entry, looked up): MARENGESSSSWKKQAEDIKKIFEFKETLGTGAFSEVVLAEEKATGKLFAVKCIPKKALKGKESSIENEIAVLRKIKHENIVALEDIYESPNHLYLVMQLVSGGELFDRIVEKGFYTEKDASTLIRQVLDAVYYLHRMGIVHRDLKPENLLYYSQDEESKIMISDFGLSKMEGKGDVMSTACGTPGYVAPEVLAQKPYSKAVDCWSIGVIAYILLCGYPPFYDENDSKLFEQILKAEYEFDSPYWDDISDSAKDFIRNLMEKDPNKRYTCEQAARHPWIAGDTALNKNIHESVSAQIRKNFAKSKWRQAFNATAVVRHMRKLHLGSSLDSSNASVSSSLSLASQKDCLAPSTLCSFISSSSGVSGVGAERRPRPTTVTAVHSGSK

[27] = target: MARK2 (human) (UniProt Q7KZI7)
[28] = target: CLK1 (human) (UniProt P49759)
[29] = target: PRKD2 (human) (UniProt Q9BZL6)
[30] = target: CDK5 (human) (UniProt Q00535)
Chain of CDK5 (human) (Q00535 whole entry, looked up): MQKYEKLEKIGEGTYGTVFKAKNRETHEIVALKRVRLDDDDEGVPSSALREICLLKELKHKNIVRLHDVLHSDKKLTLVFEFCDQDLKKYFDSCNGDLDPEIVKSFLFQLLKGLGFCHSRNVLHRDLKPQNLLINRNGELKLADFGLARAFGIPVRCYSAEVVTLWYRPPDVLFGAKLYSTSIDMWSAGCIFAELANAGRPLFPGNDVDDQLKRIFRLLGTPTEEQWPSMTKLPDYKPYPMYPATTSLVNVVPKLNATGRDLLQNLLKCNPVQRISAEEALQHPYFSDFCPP

[31] = target: PDGFRB (human) (UniProt P09619)
[32] = target: STK3 (human) (UniProt Q13188)
[33] = target: SGK2 (human) (UniProt Q9HBY8)
[34] = target: PAK4 (human) (UniProt O96013)

## Cc1ccc(Nc2nccc(N(C)c3ccc4c(C)n(C)nc4c3)n2)cc1S(N)(=O)=O
[1]; compound 0.02 µM
  inhibition: -0.7%
[1]; compound 0.2 µM
  inhibition: -2.2%
[2]; compound 0.02 µM
  inhibition: 6.5%
[2]; compound 0.2 µM
  inhibition: 6%
[3]; compound 0.02 µM
  inhibition: 5.4%
[3]; compound 0.2 µM
  inhibition: 9.1%
[4]; compound 0.02 µM
  inhibition: 2.1%
[4]; compound 0.2 µM
  inhibition: 4.9%
[5]; compound 0.02 µM
  inhibition: -1.6%
[5]; compound 0.2 µM
  inhibition: -4.4%
[6]; compound 0.02 µM
  inhibition: 1.8%
[6]; compound 0.2 µM
  inhibition: 12.2%
[7]; compound 0.02 µM
  inhibition: 0.3%
[7]; compound 0.2 µM
  inhibition: 4.5%
[8]; compound 0.02 µM
  inhibition: -2.3%
[8]; compound 0.2 µM
  inhibition: -2.6%
[9]; compound 0.02 µM
  inhibition: -4.8%
[9]; compound 0.2 µM
  inhibition: -1.2%
[10]; compound 0.02 µM
  inhibition: 3% and 5.4%
[10]; compound 0.2 µM
  inhibition: 0.8% and 5.1%
[11]; compound 0.02 µM
  inhibition: 1.7%
[11]; compound 0.2 µM
  inhibition: 4.4%
[12]; compound 0.02 µM
  inhibition: 4.6%
[12]; compound 0.2 µM
  inhibition: 3%
[13]; compound 0.02 µM
  inhibition: -5%
[13]; compound 0.2 µM
  inhibition: -2.8%
[14]; compound 0.02 µM
  inhibition: -1.1%
[14]; compound 0.2 µM
  inhibition: 2.1%
[15]; compound 0.02 µM
  inhibition: -7.8%
[15]; compound 0.2 µM
  inhibition: 42%
[16]; compound 0.02 µM
  inhibition: 6.7%
[16]; compound 0.2 µM
  inhibition: 4.3%
[17]; compound 0.02 µM
  inhibition: 7%
[17]; compound 0.2 µM
  inhibition: 13.3%
[18]; compound 0.02 µM
  inhibition: 8.4%
[18]; compound 0.2 µM
  inhibition: 42.7%
[19]; compound 0.02 µM
  inhibition: 11.5%
[19]; compound 0.2 µM
  inhibition: 40.7%
[20]; compound 0.02 µM
  inhibition: -4.8%
[20]; compound 0.2 µM
  inhibition: -5.9%
[21]; compound 0.02 µM
  inhibition: -0.6%
[21]; compound 0.2 µM
  inhibition: 3.1%
[22]; compound 0.02 µM
  inhibition: 19.6%
[22]; compound 0.2 µM
  inhibition: 80.9%
[23]; compound 0.02 µM
  inhibition: 4.8%
[23]; compound 0.2 µM
  inhibition: 19.7%
[24]; compound 0.02 µM
  inhibition: -1.6%
[24]; compound 0.2 µM
  inhibition: 1.3%
[25]; compound 0.02 µM
  inhibition: -4.9%
[25]; compound 0.2 µM
  inhibition: -7%
[26]; compound 0.02 µM
  inhibition: -0.2%
[26]; compound 0.2 µM
  inhibition: 2.9%
[27]; compound 0.02 µM
  inhibition: 9.3%
[27]; compound 0.2 µM
  inhibition: 12%
[28]; compound 0.02 µM
  inhibition: -4.3%
[28]; compound 0.2 µM
  inhibition: 6.6%
[29]; compound 0.02 µM
  inhibition: -2.2%
[29]; compound 0.2 µM
  inhibition: -1.5%
[30]; compound 0.02 µM
  inhibition: -0.3%
[30]; compound 0.2 µM
  inhibition: 0.9%
[31]; compound 0.02 µM
  inhibition: 36.7%
[31]; compound 0.2 µM
  inhibition: 81.4%
[32]; compound 0.02 µM
  inhibition: -1.9%
[32]; compound 0.2 µM
  inhibition: -4.2%
[33]; compound 0.02 µM
  inhibition: 5.5%
[33]; compound 0.2 µM
  inhibition: -0.1%
[34]; compound 0.02 µM
  inhibition: 0.9%
[34]; compound 0.2 µM
  inhibition: 8%
